Experimental data from article PMC6151428, “Discovery of Novel N-Substituted Prolinamido Indazoles as Potent Rho Kinase Inhibitors and Vasorelaxation Agents” (Molecules : A Journal of Synthetic Chemistry and Natural …, 2017).

Tests used:
ROCK I = biological target: T1, ROCK I (Homo sapiens, UniProt Q13464); assay: Rho kinase activity assay (Cyclex CY-1160 kit); format: biochemical; conditions: for IC50: a: means of multiple experiments (N = 4), errors within 30% of the mean, b: single determinations, read-out: IC50 against ROCK I; for ROCK I activity compared in words: comparison with DL0805 or between series; for fold more active than DL0805 (ROCK I IC50): relative to DL0805 IC50 6.7 μM
T1 construct: purchased Cyclex, Nagoya, Japan CY-1160
Method: Briefly, the compounds at 20 μM were pre-incubated in a system wherein ROCK I (0.02 ng/μL) phosphorylates the kinase substrate’s myosin-binding subunit (MBS) pre-absorbed onto the microplate in the presence of Mg^2+ and ATP. Then, the system was washed after incubation at 30 °C for 30 min. 100 μL of horseradish peroxidase-conjugated anti-AF20 antibody was added to the wells and then incubated for 30 min at room temperature. The reaction system was then incubated with the substrate tetra-methylbenzidine (TMB), which can be catalyzed from a colorless solution to a blue solution. The absorbance was measured at a wavelength of 450 nm on a microplate reader. The color reflects the relative level of ROCK I activity. The inhibitory rates of the compounds on ROCK I were obtained from OD 450 nm and the IC50 values were calculated by nonlinear regression.

rat aortic rings [1] = assay: Vasorelaxant activity test, NE model; conditions: rat aortic rings constricted with norepinephrine (1 μM); a: mean N = 6; b: single determination; -- = No activity
From the text: (§1) Abnormalities in the Rho/ROCK signaling pathway are associated with various cardiovascular diseases, especially hypertension. The inhibition of the Rho/ROCK pathway can cause the vessels to relax. The norepinephrine (NE)- or potassium chloride (KCl)-induced model of the rat aortic ring can trigger sustained vessel contraction and is usually used to evaluate vasorelaxant activity. DL0805 has shown vasorelaxant activity. Therefore, the nine compounds with significant inhibition against ROCK I were further tested for their vasorelaxant activity in rat aortic rings in both the high-potassium and NE models (Table 3). […] The potent active compound 4b with excellent activity has been further evaluated, and further pharmacokinetic and safety evaluations are in progress.
(§2) Male Sprague-Dawley rats weighing 240–280 g (Vital River Laboratories, Beijing, China) were maintained in a 12-h light/dark cycle at 24 °C in a relative humidity of 60% room, and received food and water ad libitum. The animal care and handling were performed in accordance with the Guide for the Care and Use of Laboratory Animals published by the US National Institutes of Health and the Laboratories Institutional Animal Care and Use Committee of the Chinese Academy of Medical Science and Peking Union Medical College (ethic approval number: 00001012).
(§3) The vasorelaxant activity assay was performed as described previously. Briefly, the descending thoracic aorta was isolated after rats were euthanized by cervical dislocation. Then, the aorta was cut into ring segments (3–4 mm in length). The endothelial layer of the aorta was destroyed by gently rubbing the luminal surface with a moist cotton swab when necessary. Two stainless-steel triangles were inserted into the lumen of each ring. One triangle was fixed, and the other attached to a force transducer. Changes in isometric force were recorded on a BIOPAC polygraph (MP100WSW, Biopac Systems, Inc, Goleta, CA, USA). The rings were mounted in organ baths containing 10 mL Krebs-Henseleit (K-H) buffer with the following composition (mM): NaCl 120, KCl 4.8, MgSO4 1.4, KH2PO4 1.2, glucose 11.0, CaCl2 2.5, NaHCO3 25.0 and EDTA 0.01. The K-H buffer was continuously bubbled with 95% O2/5% CO2 at 37 °C. Rings were allowed to equilibrate for 60 min at a resting tension of 1.2 g with changes of buffer every 20 min.
(§4) After the equilibration period, the aortic rings were constricted with a high K^+ (60 mM) K-H solution to stimulate the tissue and to test its availability. Then, the rings were washed with normal K-H buffer to restore the basic tension of 1.2 g. The aortic rings were then stimulated with a high K^+ (60 mmol/L) K-H buffer ornorepinephrine (1 μM) to evaluate the vasorelaxant effects of the compounds. When the contraction reached the platform, compounds were added to the bath in batches at 5-min intervals to reach the accumulative concentrations of 1, 2, 5, 10, 25 and 50 μM. The tension of vessels was recorded and nonlinear regression was used to calculate the EC50 values.

rat aortic rings [2] = assay: Vasorelaxant activity test, high-potassium model; conditions: rat aortic rings constricted with high K+ (60 mmol/L); a: mean N = 6; b: single determination; -- = No activity
From the text: as §1, §2, §3, §4

rat aortic rings [3] = assay: Ex-vivo vasorelaxant activity in rat aortic rings (model not specified)
From the text: as §1
The vasorelaxant activity assay was performed as described previously. Briefly, the descending thoracic aorta was isolated after rats were euthanized by cervical dislocation. Then, the aorta was cut into ring segments (3–4 mm in length). […] Changes in isometric force were recorded on a BIOPAC polygraph (MP100WSW, Biopac Systems, Inc, Goleta, CA, USA). […]
After the equilibration period, the aortic rings were constricted with a high K^+ (60 mM) K-H solution to stimulate the tissue and to test its availability. […] The tension of vessels was recorded and nonlinear regression was used to calculate the EC50 values.

[4] = compound concentration 20 μM, single determinations

T1 sequence (Q13464 whole entry, species assumed): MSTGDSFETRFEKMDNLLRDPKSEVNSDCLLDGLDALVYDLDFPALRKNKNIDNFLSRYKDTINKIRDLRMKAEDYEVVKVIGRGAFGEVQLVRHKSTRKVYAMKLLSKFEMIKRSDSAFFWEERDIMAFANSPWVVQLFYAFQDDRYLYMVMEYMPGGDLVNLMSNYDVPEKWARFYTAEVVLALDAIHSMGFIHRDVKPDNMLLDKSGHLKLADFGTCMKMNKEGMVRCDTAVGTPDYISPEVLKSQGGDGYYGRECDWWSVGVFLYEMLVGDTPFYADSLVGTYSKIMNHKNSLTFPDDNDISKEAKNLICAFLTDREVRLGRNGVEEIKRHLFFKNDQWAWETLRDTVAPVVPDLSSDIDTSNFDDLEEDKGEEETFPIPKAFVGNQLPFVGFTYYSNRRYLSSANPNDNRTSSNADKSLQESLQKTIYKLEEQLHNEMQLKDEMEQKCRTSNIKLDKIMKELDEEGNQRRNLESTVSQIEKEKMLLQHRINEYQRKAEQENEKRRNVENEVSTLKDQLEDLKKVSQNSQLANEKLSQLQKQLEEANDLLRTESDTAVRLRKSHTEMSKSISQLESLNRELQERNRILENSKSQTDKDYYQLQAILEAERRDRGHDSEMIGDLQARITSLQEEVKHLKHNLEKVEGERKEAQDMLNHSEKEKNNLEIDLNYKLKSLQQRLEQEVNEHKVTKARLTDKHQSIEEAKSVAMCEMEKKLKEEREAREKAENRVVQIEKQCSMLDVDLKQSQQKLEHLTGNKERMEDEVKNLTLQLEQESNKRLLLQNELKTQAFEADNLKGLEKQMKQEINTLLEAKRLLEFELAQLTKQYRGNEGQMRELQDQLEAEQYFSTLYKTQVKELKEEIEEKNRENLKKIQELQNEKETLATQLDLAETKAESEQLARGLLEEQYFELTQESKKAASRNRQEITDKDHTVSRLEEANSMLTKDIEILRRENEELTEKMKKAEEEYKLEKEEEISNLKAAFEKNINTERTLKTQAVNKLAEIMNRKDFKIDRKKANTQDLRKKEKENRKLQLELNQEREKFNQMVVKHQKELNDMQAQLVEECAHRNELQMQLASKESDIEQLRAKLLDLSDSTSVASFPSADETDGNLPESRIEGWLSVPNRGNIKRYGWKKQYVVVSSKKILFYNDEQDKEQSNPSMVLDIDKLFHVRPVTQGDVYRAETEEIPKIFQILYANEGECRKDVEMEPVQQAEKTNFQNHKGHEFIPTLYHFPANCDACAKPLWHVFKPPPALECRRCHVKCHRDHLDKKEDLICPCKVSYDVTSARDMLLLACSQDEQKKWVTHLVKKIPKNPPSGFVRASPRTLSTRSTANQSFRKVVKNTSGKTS

Molecule | % Inhibition of ROCK I (ROCK I; [4]) [%] | EC50 (rat aortic rings [1]) [µM] | EC50 (rat aortic rings [2]) [µM] | melting point [°C] | IC50 (ROCK I) [µM] | inhibition at 20 µM (ROCK I; [4]) [%] | ROCK I activity compared in words (ROCK I) | fold more active than DL0805 (ROCK I IC50) (ROCK I) [fold] | vasorelaxant activity compared with fasudil (rat aortic rings [3])
O=S(=O)(c1cccc2cnccc12)N1CCCNCC1 [fasudil, reference compound] | – | 4.65 | 5.47 | – | – | – | – | – | –
O=C(Nc1ccc2cn[nH]c2c1)[C@H]1CCCN1Cc1ccccc1 [Compound 3b, (R)-1-Benzyl-N-(1H-indazol-6-yl)pyrrolidine-2-carboxamide] | – | – | – | 192 to 193 | – | 15 | – | – | –
O=C(Nc1ccc2[nH]ncc2c1)[C@H]1CCCN1Cc1ccccc1 [Compound 2b, (R)-1-Benzyl-N-(1H-indazol-5-yl)pyrrolidine-2-carboxamide] | – | – | – | 199 to 201 | – | 24.3 | – | – | –
Cc1ccc(CN2CCCC2C(=O)Nc2ccc3[nH]ncc3c2)cc1 (centres unmarked) [Compound 2d, N-(1H-Indazol-5-yl)-1-(4-methylbenzyl)pyrrolidine-2-carboxamide] | – | – | – | 200 to 202 | – | 26.6 | – | – | –
O=C(Nc1ccc2[nH]ncc2c1)[C@@H]1CCCN1Cc1ccccc1 [Compound 2c, (S)-1-Benzyl-N-(1H-indazol-5-yl)pyrrolidine-2-carboxamide] | – | – | – | 202 to 203 | – | 24.6 | – | – | –
O=C(Nc1ccc2cn[nH]c2c1)C1CCCN1Cc1ccccc1 (centres unmarked) [Compound 3a, 1-Benzyl-N-(1H-indazol-6-yl)pyrrolidine-2-carboxamide] | – | – | – | 195 to 196 | – | 16 | – | – | –
O=C(Nc1ccc2cn[nH]c2c1)[C@@H]1CCCN1Cc1ccccc1 [Compound 3c, (S)-1-Benzyl-N-(1H-indazol-6-yl)pyrrolidine-2-carboxamide] | – | – | – | 195 to 197 | – | 23.7 | – | – | –
Cc1ccc(CN2CCC[C@H]2C(=O)Nc2ccc3[nH]ncc3c2)cc1 [Compound 2f, (S)-N-(1H-Indazol-5-yl)-1-(4-methylbenzyl)pyrrolidine-2-carboxamide] | – | – | – | 204 to 206 | – | 21.3 | – | – | –
Cc1ccc(CN2CCC[C@@H]2C(=O)Nc2ccc3[nH]ncc3c2)cc1 [Compound 2e, (R)-N-(1H-Indazol-5-yl)-1-(4-methylbenzyl)pyrrolidine-2-carboxamide] | – | – | – | 203 to 205 | – | – | – | – | –
O=C(Nc1ccc2[nH]ncc2c1)C1CCCN1Cc1ccccc1 (centres unmarked) [Compound 2a, 1-Benzyl-N-(1H-indazol-5-yl)pyrrolidine-2-carboxamide] | – | – | – | 200 to 201 | – | 27.2 | – | – | –

The next lines start with results.

% Inhibition of ROCK I (ROCK I; [4]) [%] | EC50 (rat aortic rings [1]) [µM] | EC50 (rat aortic rings [2]) [µM] | melting point [°C] | IC50 (ROCK I) [µM] | inhibition at 20 µM (ROCK I; [4]) [%] | ROCK I activity compared in words (ROCK I) | fold more active than DL0805 (ROCK I IC50) (ROCK I) [fold] | Molecule | vasorelaxant activity compared with fasudil (rat aortic rings [3])
44.7 | – | – | – | – | – | – | – | N-(1H-Indazol-5-yl)-1-(4-methoxybenzyl)pyrrolidine-3-carboxamide [Compound 4e] | –
– | 15.6 | 60.6 | 224 to 226 | 11.5 | 54.9 | – | – | Cc1ccc(C(=O)N2CCC(C(=O)Nc3ccc4[nH]ncc4c3)C2)cc1 (centres unmarked) [Compound 5b, N-(1H-Indazol-5-yl)-1-(4-methylbenzoyl)pyrrolidine-3-carboxamide] | –
– | – | – | 177 to 178 | – | 45.4 | – | – | O=C(Nc1ccc2[nH]ncc2c1)C1CCN(C(=O)c2ccc([N+](=O)[O-])cc2)C1 (centres unmarked) [Compound 5e, N-(1H-Indazol-5-yl)-1-(4-nitrobenzoyl)pyrrolidine-3-carboxamide] | –
– | 8.91 | 19.5 | 202 to 203 | 1.41 | 63.8 | activity profiles superior to DL0805 | – | O=C(Nc1ccc2[nH]ncc2c1)C1CCN(Cc2ccc(F)cc2)C1 (centres unmarked) [Compound 4g, 1-(4-Fluorobenzyl)-N-(1H-indazol-5-yl)pyrrolidine-3-carboxamide] | –
– | – | – | 211 to 213 | – | 42.5 | – | – | O=C(Nc1ccc2[nH]ncc2c1)C1CCN(C(=O)c2ccccc2)C1 (centres unmarked) [Compound 5a, 1-Benzoyl-N-(1H-indazol-5-yl)pyrrolidine-3-carboxamide] | –
– | – | – | 242 to 244 | – | 19.1 | – | – | COc1ccc(C(=O)N2CCC(C(=O)Nc3ccc4[nH]ncc4c3)C2)cc1 (centres unmarked) [Compound 5c, N-(1H-Indazol-5-yl)-1-(4-methoxybenzoyl)pyrrolidine-3-carboxamide] | –
– | 4.07 | 3.47 | – | 0.17 | 75.8 | activity profiles superior to DL0805 | 39 | Cc1ccc(CN2CCC(C(=O)Nc3ccc4[nH]ncc4c3)C2)cc1 (centres unmarked) [Compound 4b, N-(1H-Indazol-5-yl)-1-(4-methylbenzyl)pyrrolidine-3-carboxamide] | comparable vasorelaxant activity to the approved drug fasudil
– | – | – | 202 to 204 | – | 24.5 | – | – | N#Cc1ccc(CN2CCC(C(=O)Nc3ccc4[nH]ncc4c3)C2)cc1 (centres unmarked) [Compound 4f, 1-(4-Cyanobenzyl)-N-(1H-indazol-5-yl)pyrrolidine-3-carboxamide] | –
– | > 50 | 32.4 | 203 to 204 | 0.42 | 54.8 | activity profiles superior to DL0805 | – | O=C(Nc1ccc2[nH]ncc2c1)[C@H]1CCN(Cc2ccccc2)C1 [Compound 4h, (S)-1-Benzyl-N-(1H-indazol-5-yl)pyrrolidine-3-carboxamide] | –
– | 46.8 | 58.1 | 235 to 236 | 0.51 | 62.5 | activity profiles superior to DL0805 | – | O=C(Nc1ccc2[nH]ncc2c1)C1CCN(Cc2ccc(Br)cc2)C1 (centres unmarked) [Compound 4d, 1-(4-Bromobenzyl)-N-(1H-indazol-5-yl)pyrrolidine-3-carboxamide] | –
– | 11.5 | 6.02 | 203 to 204 | 7.32 | 73.9 | – | – | O=C(Nc1ccc2[nH]ncc2c1)[C@@H]1CCN(Cc2ccccc2)C1 [Compound 4i, (R)-1-Benzyl-N-(1H-indazol-5-yl)pyrrolidine-3-carboxamide] | –
– | > 50 | > 50 | 225 to 227 | 7.26 | 55.2 | – | – | O=C(Nc1ccc2[nH]ncc2c1)C1CCN(C(=O)c2ccc(Cl)cc2)C1 (centres unmarked) [Compound 5f, 1-(4-Chlorobenzoyl)-N-(1H-indazol-5-yl)pyrrolidine-3-carboxamide] | –
– | – | – | 250 to 251 | – | 27.9 | – | – | O=C(Nc1ccc2[nH]ncc2c1)C1CCN(C(=O)c2ccc(Br)cc2)C1 (centres unmarked) [Compound 5d, 1-(4-Bromobenzoyl)-N-(1H-indazol-5-yl)pyrrolidine-3-carboxamide] | –
– | 5.62 | 4 | 203 to 204 | 0.27 | 73.2 | activity profiles superior to DL0805 | 24 | O=C(Nc1ccc2[nH]ncc2c1)C1CCN(Cc2ccccc2)C1 (centres unmarked) [Compound 4a, 1-Benzyl-N-(1H-indazol-5-yl)pyrrolidine-3-carboxamide] | comparable vasorelaxant activity to the approved drug fasudil
– | 5.57 | 5.8 | – | 1.86 | 53.3 | activity profiles superior to DL0805 | – | COc1ccc(CN2CCC(C(=O)Nc3ccc4[nH]ncc4c3)C2)cc1 (centres unmarked) [Compound 4c, N-(1H-Indazol-5-yl)-1-(4-methoxybenzyl)pyrrolidine-3-carboxamide] | –
